{
  "source": "patent US7772383B2",
  "about": "“Chemical PCR: Compositions for enhancing polynucleotide amplification reactions” (The Trustees of Princeton University, priority 2002, dated 2010)",
  "key": {"[1]": {"tested_on": "996 bp segment of human myeloid leukocyte c-jun cDNA", "assay": "PCR amplification of c-jun cDNA with diol additives, standard cycling", "assay_type": "biochemical", "settings": "c-jun; for Effective range: concentration interval over which densitometric volume of target band is at least 50% of maximum volume; for Potency: normalized maximum densitometric volume of target band: 1,5-Pentanediol = 1", "procedure": "(§1) Amplification reactions were carried out under the following general conditions. Those skilled in the art will appreciate, however, that to the extent that the conditions (set forth in this application) required for specific experiments described in this example were inconsistent with the following general conditions, limited exceptions to the following general conditions were made The general conditions were as follows: 10 Mm Tris-HCl (Ph 8.8), 50 Mm KCl, 1.5 Mm MgCl2, 0.01% (w/v) gelatin, 0.2 Um primers, 0.06 ng/ul template, 0.2 Mm each Dntp, 0.04 U/ul Taq polymerase. The templates used were bovine brain N-WASP cDNA (1518 bp), a 996 bp segment of human myeloid leukocyte c-jun cDNA, a 511 bp segment of human prostate-specific membrane antigen (PSM) cDNA, and bovine brain glycolipid transfer protein (GTP) cDNA (660 bp). cDNA synthesis was carried out using the FIRST-STRAND® RT-PCR kit from Stratagene on the respective mRNAs purchased from Clontech. All amplification reactions for gene were carried out using a single master batch of cDNA. Taq polymerase and dNTPs were obtained from Stratagene. Primers were obtained from Genosys. Primer melting temperatures (Tms) were calculated using the Genosys oligo calculator program. The sequences of the primers were as follows.\n(§2) Polymerase chain reactions for the N-WASP gene were conducted on a ROBOCYCLER® Gradient 40 thermal cycler from Stratagene using 100 ul solutions in 600 ul thin-walled tubes. For expediency, amplification of c-jun, PSM and GTP was carried out in a ROBOCYCLER® Gradient 96 thermal cycler from Stratagene using 50 ul solutions in 200 ul thin-walled tubes. Prior to Taq polymerase addition, a hotstart protocol was carried out that consisted of an initial cycle of 95° C. for 5 minutes (11) to ensure complete first-strand separation, followed by a cycle of 54° C. for 5 minutes. Amplifications were run for 30 cycles. […] Extension was done at 72° C. for periods depending on target length: 2 minutes for N-WASP, 1.5 minutes for c-jun and GTP, and 1 minute for PSM. Annealings were carried out either at fixed concentrations of additives using temperature gradients of 38-56° C. for N-WASP and 44-58° C. for the other targets, or at varying concentrations of additives using fixed temperatures of 41° C. for N-WASP, 50° C. for c-jun and PSM, and 54° C. for GTP.\n(§3) Amplification products were analyzed by agarose gel electrophoresis on 0.8% agarose gels in which 20 ul reaction products were loaded with 4 ul loading buffer. Gels were stained with ethidium bromide, visualized on a UV transilluminator (Fisher), and documented by photography. Densitometric quantitation of amplification products was carried out using IMAGE SCANNER® and IMAGE MASTER® software from Amersham Pharmacia. Background correction was done using the software's rolling disc method.\n(§4) With PSM, 1,2-propanediol, 1,2-butanediol, 1,3-butanediol, 1,4-butanediol and glycerol were tested; with c-jun, ethylene glycol and 1,3-propanediol were also tested in addition to these compounds. […] The following additive concentrations were tested using these annealing temperatures: 1,2-propanediol—0.5, 0.8, 1.1, 1.4, 1.7 and 2.0M; 1,2-butanediol—0.1, 0.3, 0.5, 0.6, 0.7 and 0.8M; 1,3-butanediol—0.1, 0.3, 0.5, 0.6, 0.9, 1.1, 1.2M; 1,4-butanediol—0.1 to 1.1M in 0.2M intervals; 1,5-pentanediol—0.1-0.6M in 0.1M intervals; glycerol—0.5 to 1.9M in 0.2M intervals, and 2.2M."}, "[2]": {"tested_on": "511 bp segment of human prostate-specific membrane antigen (PSM) cDNA", "assay": "PCR amplification of PSM cDNA with diol additives, standard cycling", "assay_type": "biochemical", "settings": "PSM; for Specificity: best specificity (densitometric volume of target as percent of total volume) over the effective range; for Effective range: concentration interval over which densitometric volume of target is at least 50% of maximum; for Potency: normalized maximum densitometric volume of target band: 1,3-Butanediol = 1", "procedure": "as §1, §2, §3, §4"}},
  "data": [
    {"smiles": "CCC(O)CO", "note": "(stereo not shown) [1,2-Butanediol]", "values": [
      {"measurement": "Effective range", "setting": "[1]", "result": "0.27 to 0.74", "unit": "M"},
      {"measurement": "Potency", "setting": "[1]", "result": 0.64},
      {"measurement": "Specificity", "setting": "[2]", "result": 92, "unit": "%"},
      {"measurement": "Effective range", "setting": "[2]", "result": "0.34 to 0.73", "unit": "M"},
      {"measurement": "Potency", "setting": "[2]", "result": 0.42}
    ]},
    {"smiles": "OCCCCCO", "note": "[1,5-Pentanediol]", "values": [
      {"measurement": "Effective range", "setting": "[1]", "result": "0.17 to 0.45", "unit": "M"},
      {"measurement": "Potency", "setting": "[1]", "result": 1.00},
      {"measurement": "Specificity", "setting": "[2]", "result": 94, "unit": "%"},
      {"measurement": "Effective range", "setting": "[2]", "result": "0.31 to 0.49", "unit": "M"},
      {"measurement": "Potency", "setting": "[2]", "result": 0.54}
    ]}
  ]
}
